What follows are molecules tested on asymmetric di-methyl PABP1 in RKO cells (assay: RKO methylation assay, In Cell Western (ICW) for asymmetric di-methyl PABP1). Settings: Homo sapiens, RKO, Cellular potencies, ICW PABP1me2a.
Format: cell-based
Text: RKO adherent cells were purchased from ATCC (American Type Culture Collection), Manassas, Va., USA. DMEM/Glutamax medium, penicillin-streptomycin, heat inactivated fetal bovine serum, 0.05% trypsin and D-PBS were purchased from Life Technologies, Grand Island, N.Y., USA. Odyssey blocking buffer, 800 CW goat anti-rabbit IgG (H+L) antibody, and Licor Odyssey infrared scanner were purchased from Licor Biosciences, Lincoln, Nebr., USA. Asymmetric di-methyl PABP1 antibody was purchased from Cell Signaling Technology, Danvers, Mass., USA. Methanol was purchased from VWR, Franklin, Mass., USA. 10% Tween 20 was purchased from KPL, Inc., Gaithersburg, Md., USA. Paraformaldehyde (PFA) was purchased from EM Sciences. DRAQ5 was purchased from Biostatus Limited, Leicestershire, UK.
RKO adherent cells were maintained in growth medium (DMEM/Glutamax medium supplemented with 10% v/v heat inactivated fetal bovine serum and 100 units/mL penicillin-streptomycin) and cultured at 37° C. under 5% CO2.
Cell treatment, In Cell Western (ICW) for detection of asymmetric di-methyl PABP1 and DNA content: RKO cells were seeded in assay medium at a concentration of 30,000 cells per mL to a poly-D-lysine coated 384 well culture plate (BD Biosciences 356697) with 50 VL per well. Compound (100 nL) from a 96-well source plate was added directly to 384 well cell plate. Plates were incubated at 37° C., 5% CO2 for 48 hours. After two days of incubation, plates were brought to room temperature outside of the incubator for ten minutes and blotted on paper towels to remove cell media. Cells were fixed for 20 minutes at room temperature by adding 50 ul of 8% PFA followed by aspiration of supernatant with the Biotek EL406 plate washer. Cells were then permeabilized by addition of 50 μL of ice cold 100% methanol directly to each well and incubated for 30 min at room temperature. After 30 min, plates were transferred to a Biotek EL406 plate washer and washed 2 times with 100 μL per well of wash buffer (1×PBS). Next 60 μL per well of Odyssey blocking buffer (Odyssey Buffer with 0.1% Tween 20 (v/v)) were added to each plate and incubated 1 hour at room temperature. Blocking buffer was removed and 20 μL per well of primary antibody was added (asymmetric-methyl PABP1) diluted 1:400 in Odyssey buffer with 0.1% Tween 20 (v/v)) and plates were incubated overnight (16 hours) at 4° C. Plates were washed 5 times with 100 μL per well of wash buffer. Next 20 μL per well of secondary antibody was added (1:800 800 CW goat anti-rabbit IgG (H+L) antibody, 1:2000 DRAQ5 in Odyssey buffer with 0.1% Tween 20 (v/v)) and incubated for 1 hour at room temperature. The plates were washed 5 times with 100 μL per well wash buffer then 2 times with 100 μL per well of water. Plates were allowed to dry at room temperature then imaged on the Licor Odyssey machine which measures integrated intensity at 700 nm and 800 nm wavelengths. Both 700 and 800 channels were scanned.
First, the ratio for each well was determined by:
Each plate included fourteen control wells of DMSO only treatment (minimum inhibition) as well as fourteen control wells for maximum inhibition treated with 20 μM of a reference compound. The average of the ratio values for each control type was calculated and used to determine the percent […] for each test well in the plate. Reference compound was serially diluted three-fold in DMSO for a total of nine test concentrations, beginning at 20 μM.
Percent inhibition was determined and IC50 curves were generated using triplicate wells per concentration of compound. […]

| Structure (SMILES) | IC50 [µM] |
| --- | --- |
| CNCC(O)COc1cccc(-c2nc(N[C@H]3CC[C@H](O)CC3)cc(-c3c(C)noc3C)n2)c1 (stereo partly drawn) [Example 32-1a] | 10 to 20 |
| CNCC(O)COc1cccc(-c2nc(N[C@H]3CC[C@@H](O)CC3)cc(-c3c(C)noc3C)n2)c1 (stereo partly drawn) [Example 33-1a] | 5 to 10 |
| CNCC(O)COc1cccc(-c2nc(-c3c(C)noc3C)cc(N3CCNC(C)C3)n2)c1 (stereo not drawn) [Example 35-1a] | 5 to 10 |
| CNCC(O)COc1cccc(-c2nc(-c3c(C)noc3C)c(C)c(N3Cc4cccnc4C3)n2)c1 (stereo not drawn) [Example 35-3] | < 5 |
| CNCC(O)COc1ccc(Cl)c(-c2nc(NC3CC4(CCN(C(=O)OC)CC4)C3)c(C)c(-c3c(C)noc3C)n2)c1 (stereo not drawn) [Example 37-3] | < 5 |
| CNCC(O)COc1ccc(Cl)c(-c2nc(NC3CC(O)(C(F)(F)F)C3)c(C)c(-c3c(C)noc3C)n2)c1 (stereo not drawn) [Example 38-3] | < 5 |
| CNCC(O)COc1cccc(-c2nc(-c3c(C)noc3C)cc(N3CCN(C(C)=O)C[C@H]3C)n2)c1 (stereo partly drawn) [Example 39-1a] | 5 to 10 |
| CNCC(O)COc1ccc(Cl)c(-c2nc(NCC3COCCO3)c(C)c(-c3c(C)noc3C)n2)c1 (stereo not drawn) [Example 41-3] | < 5 |
| CCOC(=O)N1CCOC[C@@H]1CNc1nc(-c2cc(OC[C@@H](O)CNC)ccc2Cl)nc(-c2c(C)noc2C)c1C [Example 42-3] | < 5 |
| CNCC(O)COc1cccc(-c2nc(N[C@H]3C[C@H](O)C3)cc(-c3c(C)noc3C)n2)c1 (stereo partly drawn) [Example 43-1a] | 10 to 20 |
| CNC[C@@H](O)COc1ccc(Cl)c(-c2nc(N[C@H]3CCN(C4CC4)C[C@H]3F)c(C)c(-c3c(C)noc3C)n2)c1 [Example 44-3] | < 5 |
| CNCC(O)COc1cccc(-c2nc(NC3CC(C(=O)OC)C3)cc(-c3c(C)noc3C)n2)c1 (stereo not drawn) [Example 45-1a] | < 5 |
| CNCC(O)COc1ccc(Cl)c(-c2nc(NC3CC(C)N(C(=O)OC)C(C)C3)c(C)c(-c3c(C)noc3C)n2)c1 (stereo not drawn) [Example 46-3] | < 5 |
| CNCC(O)COc1cccc(-c2nc(-c3c(C)noc3C)c(C)c(N3CCNC(C(F)F)C3)n2)c1 (stereo not drawn) [Example 47-3] | 10 to 20 |
| CNCC(O)COc1cccc(-c2nc(-c3c(C)noc3C)cc(N(C)c3cncnc3)n2)c1 (stereo not drawn) [Example 50-1a] | < 5 |
| CNCC(O)COc1cccc(-c2nc(NC3CCOCC3)cc(-c3cnn(CC(C)C)c3)n2)c1 (stereo not drawn) [Example 51-1] | 10 to 20 |
| CNCC(O)COc1cccc(-c2nc(SC)c(C)c(-c3c(C)noc3C)n2)c1 (stereo not drawn) [Example 53-1a] | 10 to 20 |
| CNC[C@H](O)COc1ccc(Cl)c(-c2nc(N[C@H]3C[C@H](OC)C3)c(C)c(-c3c(C)noc3C)n2)c1 [Example 53-3] | < 5 |
| Cc1noc(C)c1-c1nc(-c2cccc(OCC(O)CN)c2)nc(NC2CCOCC2)c1C (stereo not drawn) [Example 54-1a] | < 5 |
| CNC[C@@H](O)COc1cccc(-c2nc(NC3CCOCC3)c(C)c(-c3c(C)noc3C)n2)c1 [Example 56-1a] | < 5 |
| CNCC(O)COc1cccc(-c2nc(-c3c(C)noc3C)c(C)c(N3CCS(=O)(=O)CC3)n2)c1 (stereo not drawn) [Example 57-1a] | 10 to 20 |
| CNCC(O)COc1ccc(Cl)c(-c2nc(N[C@H]3CCC[C@@H](OC)C3)c(C)c(-c3c(C)noc3C)n2)c1 (stereo partly drawn) [Example 57-3] | < 5 |
| CNCC(O)COc1cccc(-c2nc(NC3CCS(=O)(=O)CC3)c(C)c(-c3c(C)noc3C)n2)c1 (stereo not drawn) [Example 59-1a] | 10 to 20 |

The remaining lines, values ahead:

| IC50 [µM] | Structure (SMILES) |
| --- | --- |
| < 5 | CNC[C@@H](O)COc1cccc(-c2nc(NC3CCN(C(=O)OC)C(C)C3)c(C)c(-c3c(C)noc3C)n2)c1 (stereo partly drawn) [Example 32-3] |
| < 5 | CNCC(O)COc1cccc(-c2nc(NC3CCOCC3)cc(-c3c(C)noc3C)n2)c1 (stereo not drawn) [Example 33-1] |
| < 5 | CNC[C@H](O)COc1cccc(-c2nc(NC3CCN(C(=O)OC)C(C)C3)c(C)c(-c3c(C)noc3C)n2)c1 (stereo partly drawn) [Example 33-3] |
| < 5 | CNCC(O)COc1cccc(-c2nc(-c3c(C)noc3C)c(C)c(N(C)C3CCOCC3)n2)c1 (stereo not drawn) [Example 34-1a] |
| 5 to 10 | CNCC(O)COc1cccc(-c2nc(-c3c(C)noc3C)c(C)c(N3CCn4ccnc4C3)n2)c1 (stereo not drawn) [Example 34-3] |
| 10 to 20 | CNCC(O)COc1cccc(-c2nc(-c3c(C)noc3C)cc(N3CCNC(C)(C)C3)n2)c1 (stereo not drawn) [Example 36-1a] |
| < 5 | CNCC(O)COc1ccc(Cl)c(-c2nc(O[C@H]3CCN(C(=O)OC)[C@@H](C)C3)c(C)c(-c3c(C)noc3C)n2)c1 (stereo partly drawn) [Example 36-3] |
| 5 to 10 | CNCC(O)COc1cccc(-c2nc(-c3c(C)noc3C)cc(N3CCN(C(C)=O)[C@@H](C)C3)n2)c1 (stereo partly drawn) [Example 38-1a] |
| < 5 | CNCC(O)COc1ccc(Cl)c(-c2nc(N[C@H]3CCC[C@@H](O)C3)c(C)c(-c3c(C)noc3C)n2)c1 (stereo partly drawn) [Example 39-3] |
| 5 to 10 | CNCC(O)COc1cccc(-c2nc(-c3ccnc(C)c3)cc(N(C)C3CCOCC3)n2)c1 (stereo not drawn) [Example 40-1] |
| 10 to 20 | CNCC(O)COc1cccc(-c2nc(-c3c(C)noc3C)cc(N3CCN[C@@H](C)C3)n2)c1 (stereo partly drawn) [Example 40-1a] |
| < 5 | CNC[C@@H](O)COc1ccc(F)c(-c2nc(NC3CCN(C(=O)OC)CC3)c(C)c(-c3c(C)noc3C)n2)c1 [Example 40-3] |
| 10 to 20 | CNCC(O)COc1cccc(-c2nc(-c3cnn(CC(C)C)c3)cc(N(C)CCC#N)n2)c1 (stereo not drawn) [Example 41-1] |
| 10 to 20 | CNCC(O)COc1cccc(-c2nc(N[C@H]3C[C@@H](O)C3)cc(-c3c(C)noc3C)n2)c1 (stereo partly drawn) [Example 41-1a] |
| 10 to 20 | CNCC(O)COc1cccc(-c2nc(-c3c(C)noc3C)cc(N3CCC4(CC3)NC(=O)NC4=O)n2)c1 (stereo not drawn) [Example 42-1a] |
| < 5 | CNC[C@H](O)COc1ccc(Cl)c(-c2nc(N[C@H]3CCN(C4CC4)C[C@H]3F)c(C)c(-c3c(C)noc3C)n2)c1 [Example 43-3] |

| IC50 [µM] | Structure (SMILES) |
| --- | --- |
| 5 to 10 | CNCC(O)COc1cccc(-c2nc(N[C@@H]3CC[C@@H](O)C3)cc(-c3c(C)noc3C)n2)c1 (stereo partly drawn) [Example 44-1a] |
| < 5 | CNCC(O)COc1ccc(Cl)c(-c2nc(NC3CC4(C3)CN(C(=O)OC)C4)c(C)c(-c3c(C)noc3C)n2)c1 (stereo not drawn) [Example 45-3] |
| < 5 | CNCC(O)COc1cc(Cl)cc(-c2nc(NC3CCOCC3)c(C)c(-c3c(C)noc3C)n2)c1 (stereo not drawn) [Example 47-1a] |
| < 5 | CCN1CCC[C@H]1CNc1nc(-c2cc(OC[C@@H](O)CNC)ccc2Cl)nc(-c2c(C)noc2C)c1C [Example 48-3] |
| 5 to 10 | CNCC(O)COc1cccc(-c2nc(Nc3cnc(C)nc3)cc(-c3c(C)noc3C)n2)c1 (stereo not drawn) [Example 49-1a] |
| < 5 | CCOC(=O)N1CCC[C@@H]1CNc1nc(-c2cc(OC[C@@H](O)CNC)ccc2Cl)nc(-c2c(C)noc2C)c1C [Example 49-3] |
| 10 to 20 | CNCC(O)COc1cccc(-c2nc(-c3c(C)noc3C)cc(N(C)c3cnc(OC)nc3)n2)c1 (stereo not drawn) [Example 51-1a] |
| 10 to 20 | CNCC(O)COc1cccc(-c2nc(-c3c(C)noc3C)cc(N(CCOC)CCOC)n2)c1 (stereo not drawn) [Example 52-1] |
| < 5 | CNC[C@H](O)COc1ccc(Cl)c(-c2nc(N[C@H]3C[C@@H](OC)C3)c(C)c(-c3c(C)noc3C)n2)c1 [Example 54-3] |
| < 5 | CNC[C@H](O)COc1cccc(-c2nc(NC3CCOCC3)c(C)c(-c3c(C)noc3C)n2)c1 [Example 55-1a] |
| < 5 | CNC[C@H](O)COc1ccc(Cl)c(-c2nc(-c3c(C)noc3C)c(C)c(N3CC4(CCN(C5CC5)CC4)C3)n2)c1 [Example 55-3] |
| < 5 | CCOC(=O)N1CCOC[C@@H]1CNc1nc(-c2cc(OC[C@H](O)CNC)ccc2Cl)nc(-c2c(C)noc2C)c1Cl [Example 56-3] |
| < 5 | CNC[C@H](O)COc1ccc(Cl)c(-c2nc(NC[C@H]3COCCN3C(=O)OC)c(C)c(-c3c(C)noc3C)n2)c1 [Example 58-3] |
| < 5 | CCOC(=O)N1CCOC[C@H]1CNc1nc(-c2cc(OC[C@@H](O)CNC)ccc2F)nc(-c2c(C)noc2C)c1C [Example 59-3] |
| 10 to 20 | CNCC(O)COc1cccc(-c2nc(NC3CCS(=O)(=O)CC3)cc(-c3c(C)noc3C)n2)c1 (stereo not drawn) [Example 60-1a] |

Source: patent US10633389B2, “CARM1 inhibitors and uses thereof” (Epizyme, Inc., priority 2013, dated 2020)
